Measured values as given in patent US12544373B2, “Treatment of cancer, inflammatory diseases and autoimmune diseases” (Usher III Initiative, Inc., priority 2020, dated 2026).
“And” between values parts separate entries of the source, which are not always exact repeats. Equal values may be shown once. Read-outs that look alike come from different tables or passages of the source.

Assays:
CXF HCC-2998 = assay: CellTiter-Blue Cell Viability Assay (Example 2), colon; assay type: cell-based, human; details: for T/C %: 72 h
From the text: (§1) The CellTiter-Blue® Cell Viability Assay was used to assess the viability of cells from various cancer cell lines, in the presence or absence of Compound 85 (at different concentrations). This assay provides a homogeneous, fluorometric method for estimating the number of viable cells present in multi-well plates. Viable cells retain the ability to reduce resazurin to resorufin, which is highly fluorescent. […] The fluorescence produced is proportional to the number of viable cells. There is a linear relationship between cell number and fluorescence.
(§2) Cancer cells (see Table 6) were harvested from exponential phase cultures, counted and plated in 96 well flat-bottom microtiter plates, at a cell density 6,000-20,000 cells/well, depending on the cell line's growth rate. The culture medium was supplemented with 10% (v/v) foetal calf serum and 50 μg/mL gentamicin (140 μL/well). Cultures were incubated at 37° C. and 5% CO2 in a humidified atmosphere.
(§3) Compound 85 was serially diluted in DMSO, and five Compound 85 concentrations in half-log increments were used: 0.03 μM, 0.09 μM, 0.30 μM, 1.0 μM, and 3.0 μM. After 24 h, 10 μL of Compound 85 (dissolved in DMSO) or control (DMSO) medium were added, in duplicates, and left on the cells for another 72 h. Compound 85 solutions were added to the assay plates using a Tecan Freedom EVO 200 robotic platform. The DMSO concentration was kept constant at 0.3% v/v across the assay plate.
(§4) After incubation of up to 72 hours, fluorescence (FU) was measured using the EnSpire® multimode plate reader (Perkin Elmer) (excitation λ=570 nm, emission λ=600 nm).
(§5) Cancer cell lines used: Compound 85's anti-cancer effect was tested in 20 human cancer-cell lines representing nine cancer types (Table 6).
(§6) The percentage of viable cells in the presence of Compound 85 (Test condition, T), at different concentrations, are presented in Table 7 and expressed as a percentage of the number of viable cells in the presence of DMSO without Compound 85 (Control condition, C).
(§7) The relative IC50 is determined as the Compound 85 concentration giving a response halfway between the maximum cell viability signal (i.e., a 100% cell viability, no Compound 85 response) and the minimal viability signal (i.e. maximum cell viability inhibition achieved by Compound 85), in a sigmoidal concentration-effect curve.
(§8) The absolute IC50 is determined as the concentration that is associated with a T/C ratio of 50%.

CXF LS 174T = assay: as above; assay type: cell-based, human; details: for T/C %: 72 h
From the text: as §1, §2, §3, §4, §5, §6, §7, §8

[1] = tested on: 10 human tumor cell lines; assay: CellTiter-Blue 2D monolayer assay (Example 1), whole panel; assay type: cell-based
Method: (§9) Compound 85 was assessed in 10 human tumor cell lines (see Table 3) for anti-cancer activity in vitro using a CellTiter-Blue® based 2D monolayer assay.
(§10) CellTiter-Blue® Cell Viability Assay: Tumor cells were grown at 37° C. in a humidified atmosphere with 5% CO2 in RPMI medium, supplemented with 10% (v/v) fetal calf serum and 50 μg/ml gentamicin (140 μl/well). Cultures were incubated at 37° C. and 5% CO2 in a humidified atmosphere. After 24 hours, 10 μl of Compound 85 was added, and left on the cells for another 72 hours (incubation period). Compound 85 was tested at 5 concentrations (0.003 μM, 0.03 μM, 0.3 μM, 3 μM, and 30 μM) and serially diluted in DMSO, mixed with cell culture medium, and added to the assay plates by using a Tecan Freedom EVO 200 robotic platform. The DMSO concentration was kept constant at 0.3% yip across the assay plate. Every 96 well plate included six DMSO-treated control wells and Compound 85-treated wells in duplicate at 5 concentrations. Viability of cells was quantified using the CellTiter-Blue® cell viability assay (Promega G8081). After incubation of cells, the CellTiter-Blue® reagent was brought to ambient temperature. Next, 20 μl of CellTiter-Blue® reagent were added to each well. After incubation tier up to 4 hours, fluorescence (FU) was measured using the EnSpire® multimode plate reader (Perkin Elmer) ([…]).
(§11) Data Evaluation: Sigmoidal concentration-response curves were fitted to the data points (test-versus-control; T/C values) obtained for each tumor model using 4 parameter non-linear curve fit (Charles River DRS Datawarehouse Software). Drug effects are expressed in terms of the percentage of the fluorescence signal, obtained by comparison of the mean signal in the treated wells with the mean signal of the untreated controls (T/C-value [%]) (Table 4). IC50 and IC70 values were reported as relative and absolute IC50 and IC70 values (Table 5). The absolute IC50 and IC70 values reflect the concentration of Compound 85 that achieves T/C=50% and T/C=30%, respectively. The relative IC50 value is the concentration of Compound 85 that gives a response half way between the top and bottom plateau of the sigmoidal concentration-response curve (inflection point of the curve).

MEXF 1341 = assay: CellTiter-Blue Cell Viability Assay (Example 2), melanoma; assay type: cell-based, human; details: for T/C %: 72 h
From the text: as §1, §2, §3, §4, §5, §6, §7, §8

MEXF 1737 = assay: as above; assay type: cell-based, human; details: for T/C %: 72 h
From the text: as §1, §2, §3, §4, §5, §6, §7, §8

OVXF 899 = assay: CellTiter-Blue 2D monolayer assay (Example 1), ovarian; assay type: cell-based, human; details: for Test/Control (%): 72 h
Method: as §9, §10, §11

[2] = geometric mean over 10 cell lines

## CC(C)(O)Cn1nc(-c2ccccc2)c2c(Cl)c(-c3ccccc3)nnc21 [Compound 85]
CXF HCC-2998
  Absolute IC70: 1.125 µM
  Relative IC70: 0.891 µM
CXF HCC-2998; 0.03 μM
  T/C %: 98%
CXF HCC-2998; 0.095 μM
  T/C %: 99%
CXF HCC-2998; 0.3 μM
  T/C %: 98%
CXF HCC-2998; 0.95 μM
  T/C %: 40%
CXF HCC-2998; 3.0 μM
  T/C %: 22%
CXF HCC-2998; read-out: Absolute IC50
  IC50: 0.844 µM
CXF HCC-2998; read-out: Relative IC50
  IC50: 0.765 µM
CXF LS 174T
  Absolute IC70: 0.474 µM
  Relative IC70: 0.467 µM
CXF LS 174T; 0.03 μM
  T/C %: 96%
CXF LS 174T; 0.095 μM
  T/C %: 96%
CXF LS 174T; 0.3 μM
  T/C %: 72%
CXF LS 174T; 0.95 μM
  T/C %: 5%
CXF LS 174T; 3.0 μM
  T/C %: 3%
CXF LS 174T; read-out: Absolute IC50
  IC50: 0.383 µM
CXF LS 174T; read-out: Relative IC50
  IC50: 0.384 µM
[1]; all cell lines of Table 3
  inhibition of the tumor cell growth: concentration-dependent inhibition
[1]; [2]
  Geometric mean Abs. IC70: 1.258 µM
  Geometric mean Rel. IC70: 1.226 µM
[1]; geometric mean over 10 cell lines, read-out: Geometric mean Abs. IC50
  IC50: 0.95 µM and 0.948 µM
[1]; geometric mean over 10 cell lines, read-out: Geometric mean Rel. IC50
  IC50: 0.926 µM
MEXF 1341
  Absolute IC70: 0.445 µM
  Relative IC70: 0.451 µM
MEXF 1341; 0.03 μM
  T/C %: 97%
MEXF 1341; 0.095 μM
  T/C %: 91%
MEXF 1341; 0.3 μM
  T/C %: 82%
MEXF 1341; 0.95 μM
  T/C %: 0%
MEXF 1341; 3.0 μM
  T/C %: 0%
MEXF 1341; read-out: Absolute IC50
  IC50: 0.391 µM
MEXF 1341; read-out: Relative IC50
  IC50: 0.399 µM
MEXF 1737
  Absolute IC70: 0.925 µM
  Relative IC70: 0.864 µM
MEXF 1737; 0.03 μM
  T/C %: 99%
MEXF 1737; 0.095 μM
  T/C %: 97%
MEXF 1737; 0.3 μM
  T/C %: 101%
MEXF 1737; 0.95 μM
  T/C %: 27%
MEXF 1737; 3.0 μM
  T/C %: 16%
MEXF 1737; read-out: Absolute IC50
  IC50: 0.826 µM
MEXF 1737; read-out: Relative IC50
  IC50: 0.799 µM
OVXF 899
  Rel. IC70: 0.739 µM
OVXF 899; 0.003 μM
  Test/Control (%): 108%
OVXF 899; 0.03 μM
  Test/Control (%): 106%
OVXF 899; 0.3 μM
  Test/Control (%): 86%
OVXF 899; 3 μM
  Test/Control (%): 2%
OVXF 899; 30 μM
  Test/Control (%): 1%
OVXF 899; T/C=30%
  Abs. IC70: 0.775 µM
OVXF 899; T/C=50%, read-out: Abs. IC50
  IC50: 0.553 µM
OVXF 899; bottom plateau of curve
  Bot. (%): 1%
OVXF 899; read-out: Rel. IC50
  IC50: 0.522 µM
OVXF 899; top plateau of curve
  Top (%): 107%
